Results: patent US11390625B2, “Aryl-phosphorus-oxygen compound as EGFR kinase inhibitor” (Chia Tai Tianqing Pharmaceutical Group Co., Ltd., priority 2017, dated 2022)

Experiments:
[1] = Plasma, tumor and lung exposure in mice of the Ba/F3 CDX efficacy experiment; type: in vivo; conditions: mouse, 15.0 mg/kg/day oral; for concentration at 2 h / Lung, 2 h / Tumor, 2 h: 2 h after administration
Protocol: On Day 14 after administration to the groups for the efficacy experiment, the plasma was collected from the mice by submandibular blood collection before last administration and 2 hours after last administration, and the plasma samples were collected from the mice at 1 h, 4 h, 8 h and 24 h after administration. About 100 ul of blood was collected each time, placed in an anticoagulation tube, and centrifuged at 8000 rpm for 7 min, to collect plasma, which was stored at −80° C.

[2] = tested on: Ba/F3 (EGFR Δ19del/T790M/C797S) cells; test: Anti-proliferation experiment on cells (2), Ba/F3 (EGFR Δ19del/T790M/C797S); type: cell-based; conditions: Ba/F3 EGFR, 72 h; Ba/F3 cells, 3 days; read-out: anti-proliferation effect on cells Ba/F3(Δ19del/T790M/C797S) IC50
Protocol: The compounds ware transferred to a 384-well plate, with 125 nL of compound per well. […] After 3 days, 25 μL of detection reagent was added. The plate was incubated at room temperature for 10 minutes and then read with Envision.

[3] = tested on: pEGFR Ba/F3 (EGFR Δ19del/T790M/C797S) cells; test: Cell phosphorylation inhibition experiment, pEGFR Ba/F3 (EGFR Δ19del/T790M/C797S); type: cell-based; conditions: Ba/F3 EGFR; Ba/F3 cells, EGF stimulated; read-out: Effect on cellular EGFR phosphorylation Ba/F3(Δ19del/T790M/C797S) IC50
Protocol: The test compounds and reference compounds were diluted with 100% DMSO to 10 mM or 1 mM, and then a gradient dilution was performed by using Echo, 150 nL per well, with a three-fold concentration gradient and a ten-point dose response curve. The final concentration of the compounds was 100 μM or 10 μM. The suspension cells was centrifuged at 1000 rp for 5 minutes, suspend in Hanks' balanced salt solution, and added to a 384-well plate containing the compounds at 10 L/120K/well (the cell density of 1.2×10^7), followed by centrifugation at 1200 rpm for 30 s and incubation at 37° C. for 30 min. 5 μL of EGF (which has been diluted with 0.1% BSA Hanks' balanced salt solution) was added to each well, in which the final concentration of EGF was 1 μM. The plate was centrifuged at 1200 rpm for 30 s and incubated at 37° C. for 20 min. 5 μL of 4× lysis buffer containing blocking solution was added to each well, and then the plate was centrifuged at 1200 rpm for 30 s, and incubated at 37° C. for 30 min.

PC-9 (Δ19del) xenograft = test: In vivo pharmacodynamics study (2): PC-9 (Δ19del) subcutaneously transplanted tumor in mouse; conditions: 50 mg/kg (days 0-9); for Tumor volume Day 0 / Tumor volume Day 2 / Tumor volume Day 6 / Tumor volume Day 9 / Tumor volume Day 13 / Tumor volume Day 16 / Tumor volume Day 20 / Tumor volume Day 23: 25 mg/kg (days 10-21) oral once a day
Protocol: 1. Cell culture: lung cancer PC-9 cells were monolayer cultured in vitro, culture conditions: RPMI-1640 (cell culture medium) plus 10% fetal bovine serum, 100 U/mL penicillin and 100 μg/mL streptomycin, culture in a 5% CO2 incubator at 37° C. The cells were conventionally digested with trypsin-EDTA twice a week for passage. When the cell saturation was 80%-90%, and the number reached the requirements, the cells were collected and counted. The density was 5×10^6 cells.
2. Cell inoculation: 0.2 mL (containing 5×10^6 cells) of PC-9 cell suspension (PBS: Matrigel=1:1) was subcutaneously inoculated into the right back of each mouse, with a total of 64 mice. On Day 7 after inoculation, when the average tumor volume measured reached 169 mm^3, the animals were randomly hierarchically grouped based on tumor volume and animal weight, and started to administrate each group. PBS was a phosphate buffer solution, and Matrigel was a matrix.
3. Administration: dosage: Days 0-9: 50 mg/kg; Days 10-21: 25 mg/kg; oral administration; administration frequency: once a day×3 weeks.
Tumor Measurement and Experimental Indicators
Tumor diameter was measured twice a week with a vernier caliper.
The antitumor effect of the compound was evaluated by TGI (%).
The relative tumor volume (RTV) was calculated according to the results of tumor measurement. The calculation formula was RTV=Vt/V0, wherein V0 was the tumor volume measured during group administration (i.e., DO), and Vt was the tumor volume of the corresponding mice measured at a certain time. The data on the same day were taken for TRTV and CRTV.
TGI (%) reflected tumor growth inhibition rate.
After the end of the experiments, the tumor weight would be measured and the TGI (%) was calculated.

[4] = tested on: Ba/F3 (Δ19del/T790M/C797S) xenograft; test: In vivo efficacy (1): Ba/F3 (Δ19del/T790M/C797S) subcutaneous xenograft (CDX) in BALB/c nude mice; conditions: for TGI (the tumor inhibition value): 45 mg/kg oral daily, 13 consecutive days;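 for all read-outs here: female nude mice, dosing begun at mean tumor size near 80–120 mm^3, tumors measured by caliper twice weekly, volume in mm^3 computed as 0.5×long×short diameter squared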
Protocol: BALB/c nude mice, female, 6-8 weeks old, 18-20 g of body weight, were housed in SPF-grade environment, and each cage was individually ventilated (5 mice per cage). […] A total of 48 mice purchased from Beijing Weitonglihua company were used for the study. Each mouse was implanted with cells at the right flank, for tumor growth. The experiment was started when the average tumor volume reached approximately 80-120 mm^3. […] Tumor volume was measured twice a week with a two-dimensional caliper, measured in mm^3 and calculated by the following formula: V=0.5a×b^2, wherein a and b are the long and short diameters of the tumor, respectively. Antitumor efficacy was determined by dividing the average increase of the tumor volume of the animals treated with the compound by the average increase of the tumor volume of the untreated animals.

## COc1cc(N2CCC(N3CCN(C)CC3)CC2)c(C)cc1Nc1ncc(Br)c(Nc2ccc3nccnc3c2P(C)(C)=O)n1 [Compound 34]
[1]; BALB/c nude, plasma
  half-life: 10 h
  concentration at 2 h: 3.55 µM
[1]
  Lung, 2 h: 32533 nmol/kg
  Tumor, 2 h: 16667 nmol/kg
[2]
  IC50: 22 nM
[3]
  IC50: 19 nM
PC-9 (Δ19del) xenograft
  Tumor volume Day 0: 185 mm^3
  Tumor volume Day 2: 198 mm^3
  Tumor volume Day 6: 92 mm^3
  Tumor volume Day 9: 75 mm^3
  Tumor volume Day 13: 40 mm^3
  Tumor volume Day 16: 45 mm^3
  Tumor volume Day 20: 76 mm^3
  Tumor volume Day 23: 111 mm^3
PC-9 (Δ19del) xenograft; day 23, 25 mg/kg (days 10-21) oral
  TGI: 100%
[4]; 5 mg/kg/day oral
  Tumor volume Day 0: 84 mm^3
  Tumor volume Day 2: 108 mm^3
  Tumor volume Day 5: 212 mm^3
  Tumor volume Day 8: 395 mm^3
  Tumor volume Day 10: 505 mm^3
  Tumor volume Day 12: 748 mm^3
  Tumor volume Day 13: 881 mm^3
[4]; 15 mg/kg/day oral
  Tumor volume Day 0: 84 mm^3
  Tumor volume Day 2: 76 mm^3
  Tumor volume Day 5: 107 mm^3
  Tumor volume Day 8: 126 mm^3
  Tumor volume Day 10: 176 mm^3
  Tumor volume Day 12: 292 mm^3
  Tumor volume Day 13: 326 mm^3
[4]
  TGI (the tumor inhibition value): 101%
[4]; 45 mg/kg/day oral
  Tumor volume Day 0: 84 mm^3
  Tumor volume Day 2: 56 mm^3
  Tumor volume Day 5: 32 mm^3
  Tumor volume Day 8: 35 mm^3
  Tumor volume Day 10: 42 mm^3
  Tumor volume Day 12: 73 mm^3
  Tumor volume Day 13: 68 mm^3

## CCc1cc(Nc2ncc(Br)c(Nc3ccc4nccnc4c3P(C)(C)=O)n2)c(OC)cc1N1CCC(N2CCN(C)CC2)CC1 [Compound 41]
[1]; BALB/c nude, plasma
  AUC(0-t): 122 µM·h
  half-life: 20.5 h
  concentration at 2 h: 6.99 µM
[1]
  Lung, 2 h: 29567 nmol/kg
  Tumor, 2 h: 18567 nmol/kg
[2]
  IC50: 9 nM
[3]
  IC50: 25 nM
PC-9 (Δ19del) xenograft
  Tumor volume Day 0: 184 mm^3
  Tumor volume Day 2: 198 mm^3
  Tumor volume Day 6: 54 mm^3
  Tumor volume Day 9: 44 mm^3
  Tumor volume Day 13: 36 mm^3
  Tumor volume Day 16: 30 mm^3
  Tumor volume Day 20: 37 mm^3
  Tumor volume Day 23: 42 mm^3
[4]; 5 mg/kg/day oral
  Tumor volume Day 0: 84 mm^3
  Tumor volume Day 2: 103 mm^3
  Tumor volume Day 5: 203 mm^3
  Tumor volume Day 8: 348 mm^3
  Tumor volume Day 10: 485 mm^3
  Tumor volume Day 12: 707 mm^3
  Tumor volume Day 13: 814 mm^3
[4]; 15 mg/kg/day oral
  Tumor volume Day 0: 84 mm^3
  Tumor volume Day 2: 68 mm^3
  Tumor volume Day 5: 69 mm^3
  Tumor volume Day 8: 82 mm^3
  Tumor volume Day 10: 115 mm^3
  Tumor volume Day 12: 146 mm^3
  Tumor volume Day 13: 211 mm^3
[4]
  TGI (the tumor inhibition value): 109%
[4]; 45 mg/kg/day oral
  Tumor volume Day 0: 84 mm^3
  Tumor volume Day 2: 47 mm^3
  Tumor volume Day 5: 24 mm^3
  Tumor volume Day 8: 7 mm^3
  Tumor volume Day 10: 4 mm^3
  Tumor volume Day 12: 0 mm^3
  Tumor volume Day 13: 0 mm^3
